# Experiments:
# [1] = Trials with patients using dosage forms of cetyl myristate alone or with cetyl palmitate; format: in vivo, human; details: variety of patients, cetyl myristate alone
# [2] = laboratory experiments, www.gcinutrients.com; cited from earlier work
compound,measurement,setting,value
CCCCCCCCCCCCCCCCOC(=O)CCCCCCCCCCCCC [cetyl myristate],relief from the symptoms of IBS and/or IBD,[1],favourable responses
same,anti-arthritic activity,[2],negligible

# From US8535696B2, “Treating eczema and/or psoriasis” (Lypanosys Pte Limited, priority 2000, dated 2013)
